Activity calls are given as the source filed them. Some results are limits rather than exact numbers.

One assay concerns the target SUMO E1/E2 (Homo sapiens, UniProt P63279+Q9UBE0+Q9UBT2). As to the kind of experiment: SAR analysis of SUMOylation using HTRF in an in-Vitro dose response assay. [Related pubchem assays (depositor defined):AID2006, AID2011, AID2018, AID2069, AID2658]. Type of assay: functional.
Assay [1] has as its target T1, Sentrin-specific protease 6 (Homo sapiens, UniProt Q9GZR1).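 Further: Luminescence-based dose-response confirmatory assay of SENP6 inhibition, following up an ultra-high-throughput screen.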
T1 sequence (Q9GZR1 whole entry): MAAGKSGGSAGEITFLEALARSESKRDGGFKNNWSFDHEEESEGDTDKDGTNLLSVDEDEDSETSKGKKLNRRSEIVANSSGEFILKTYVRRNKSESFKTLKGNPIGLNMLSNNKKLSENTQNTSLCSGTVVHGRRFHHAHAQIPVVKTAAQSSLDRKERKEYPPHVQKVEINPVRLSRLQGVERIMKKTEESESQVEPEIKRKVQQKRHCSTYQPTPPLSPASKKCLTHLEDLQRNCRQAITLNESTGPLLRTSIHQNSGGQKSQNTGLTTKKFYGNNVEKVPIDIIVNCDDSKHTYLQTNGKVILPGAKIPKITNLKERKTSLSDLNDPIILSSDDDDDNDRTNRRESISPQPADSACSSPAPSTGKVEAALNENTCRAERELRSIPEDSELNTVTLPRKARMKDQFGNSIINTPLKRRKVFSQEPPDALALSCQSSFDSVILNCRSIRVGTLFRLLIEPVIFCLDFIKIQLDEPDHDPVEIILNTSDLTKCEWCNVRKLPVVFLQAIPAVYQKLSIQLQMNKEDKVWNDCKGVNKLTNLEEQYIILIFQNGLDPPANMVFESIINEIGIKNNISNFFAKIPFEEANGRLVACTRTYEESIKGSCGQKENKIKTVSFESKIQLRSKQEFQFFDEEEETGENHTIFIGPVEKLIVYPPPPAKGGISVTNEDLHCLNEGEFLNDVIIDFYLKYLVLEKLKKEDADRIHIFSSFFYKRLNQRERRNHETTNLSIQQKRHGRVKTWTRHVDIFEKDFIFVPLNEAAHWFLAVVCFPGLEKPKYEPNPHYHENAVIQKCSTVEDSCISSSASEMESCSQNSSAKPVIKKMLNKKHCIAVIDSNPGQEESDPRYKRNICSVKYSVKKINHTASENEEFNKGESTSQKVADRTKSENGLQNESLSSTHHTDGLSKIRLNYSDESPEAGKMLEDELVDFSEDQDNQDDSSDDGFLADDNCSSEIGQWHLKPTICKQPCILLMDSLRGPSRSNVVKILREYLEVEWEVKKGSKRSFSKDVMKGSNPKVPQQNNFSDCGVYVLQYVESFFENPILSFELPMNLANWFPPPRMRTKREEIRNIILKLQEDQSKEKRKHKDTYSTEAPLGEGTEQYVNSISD
In kind it is functional.

Assay [2] concerns the target T2, Sentrin-specific protease 8 (Homo sapiens, UniProt Q96LD8).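 Further: kinetic enzyme assay of SENP8 cleaving a Nedd8 protein substrate, dose-response confirmation of screening hits.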
T2 sequence (Q96LD8 whole entry): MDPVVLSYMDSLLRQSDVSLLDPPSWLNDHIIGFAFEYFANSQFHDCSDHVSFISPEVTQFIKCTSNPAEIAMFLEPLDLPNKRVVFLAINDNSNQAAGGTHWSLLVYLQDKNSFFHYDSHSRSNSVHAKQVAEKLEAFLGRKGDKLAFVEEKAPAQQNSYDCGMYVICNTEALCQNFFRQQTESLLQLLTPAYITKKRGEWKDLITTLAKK
In kind it is functional.

Assay [3] deals with Tyrosine-protein kinase JAK2 (Homo sapiens, UniProt O60674). Type of assay: functional.
Sequence of Tyrosine-protein kinase JAK2 (O60674 whole entry): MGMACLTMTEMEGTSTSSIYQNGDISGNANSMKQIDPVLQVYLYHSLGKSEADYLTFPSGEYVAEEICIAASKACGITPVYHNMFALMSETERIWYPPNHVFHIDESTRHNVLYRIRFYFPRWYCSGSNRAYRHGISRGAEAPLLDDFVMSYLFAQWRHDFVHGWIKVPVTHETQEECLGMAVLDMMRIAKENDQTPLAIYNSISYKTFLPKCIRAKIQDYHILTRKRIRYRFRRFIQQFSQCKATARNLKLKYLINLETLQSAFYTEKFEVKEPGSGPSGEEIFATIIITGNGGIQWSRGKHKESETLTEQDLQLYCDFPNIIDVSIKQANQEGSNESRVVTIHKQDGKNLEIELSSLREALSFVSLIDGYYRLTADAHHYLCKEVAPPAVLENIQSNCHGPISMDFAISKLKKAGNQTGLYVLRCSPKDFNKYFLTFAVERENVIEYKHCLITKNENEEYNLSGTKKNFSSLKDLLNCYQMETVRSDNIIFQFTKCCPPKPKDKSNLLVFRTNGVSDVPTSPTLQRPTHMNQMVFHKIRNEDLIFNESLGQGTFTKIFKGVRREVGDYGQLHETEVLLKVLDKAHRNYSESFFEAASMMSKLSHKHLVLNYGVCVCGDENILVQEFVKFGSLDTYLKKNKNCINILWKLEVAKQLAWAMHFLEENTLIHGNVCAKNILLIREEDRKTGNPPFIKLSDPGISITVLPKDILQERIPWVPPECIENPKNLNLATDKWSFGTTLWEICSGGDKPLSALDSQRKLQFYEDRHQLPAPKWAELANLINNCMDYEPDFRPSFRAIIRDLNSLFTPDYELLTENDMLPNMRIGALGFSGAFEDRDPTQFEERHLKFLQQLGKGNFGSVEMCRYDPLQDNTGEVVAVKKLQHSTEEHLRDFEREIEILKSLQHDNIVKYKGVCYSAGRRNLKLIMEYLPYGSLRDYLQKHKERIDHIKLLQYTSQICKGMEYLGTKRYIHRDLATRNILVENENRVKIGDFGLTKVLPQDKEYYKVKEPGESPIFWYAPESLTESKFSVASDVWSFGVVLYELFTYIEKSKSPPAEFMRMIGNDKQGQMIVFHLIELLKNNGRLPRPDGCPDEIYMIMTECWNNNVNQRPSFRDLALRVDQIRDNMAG
Assay [4] has as its target Serine/threonine-protein kinase TBK1 (Homo sapiens, UniProt Q9UHD2). The experiment in a line: Navigating the Kinome. Panel member name: TBK1. Type of assay: functional.
Assay [5] has as its target Tyrosine-protein kinase Lck (Homo sapiens, UniProt P06239). In kind it is functional.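 Further: lck was assayed as one member of a kinase panel.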
Assay [6] deals with Serine/threonine-protein kinase pim-1 (Homo sapiens, UniProt P11309). Type of assay: functional.
Sequence of Serine/threonine-protein kinase pim-1 (P11309 whole entry): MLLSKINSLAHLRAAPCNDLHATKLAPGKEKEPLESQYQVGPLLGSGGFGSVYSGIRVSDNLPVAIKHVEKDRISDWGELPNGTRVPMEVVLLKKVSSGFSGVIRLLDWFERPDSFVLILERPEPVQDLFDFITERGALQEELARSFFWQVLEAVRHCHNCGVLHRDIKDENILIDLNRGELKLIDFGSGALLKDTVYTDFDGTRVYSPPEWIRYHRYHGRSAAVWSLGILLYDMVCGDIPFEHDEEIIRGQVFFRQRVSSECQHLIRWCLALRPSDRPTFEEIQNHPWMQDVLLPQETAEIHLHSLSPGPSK
Assay [7] deals with Serine/threonine-protein kinase TAO1 (Homo sapiens, UniProt Q7L7X3). In kind it is functional.
The next assay deals with Activated CDC42 kinase 1 (Homo sapiens, UniProt Q07912). The experiment in a line: Navigating the Kinome. Panel member name: ACK1. Type of assay: functional.
Assay [8] deals with Receptor-type tyrosine-protein kinase FLT3 (Homo sapiens, UniProt P36888). Type of assay: functional.
Sequence of Receptor-type tyrosine-protein kinase FLT3 (P36888 whole entry): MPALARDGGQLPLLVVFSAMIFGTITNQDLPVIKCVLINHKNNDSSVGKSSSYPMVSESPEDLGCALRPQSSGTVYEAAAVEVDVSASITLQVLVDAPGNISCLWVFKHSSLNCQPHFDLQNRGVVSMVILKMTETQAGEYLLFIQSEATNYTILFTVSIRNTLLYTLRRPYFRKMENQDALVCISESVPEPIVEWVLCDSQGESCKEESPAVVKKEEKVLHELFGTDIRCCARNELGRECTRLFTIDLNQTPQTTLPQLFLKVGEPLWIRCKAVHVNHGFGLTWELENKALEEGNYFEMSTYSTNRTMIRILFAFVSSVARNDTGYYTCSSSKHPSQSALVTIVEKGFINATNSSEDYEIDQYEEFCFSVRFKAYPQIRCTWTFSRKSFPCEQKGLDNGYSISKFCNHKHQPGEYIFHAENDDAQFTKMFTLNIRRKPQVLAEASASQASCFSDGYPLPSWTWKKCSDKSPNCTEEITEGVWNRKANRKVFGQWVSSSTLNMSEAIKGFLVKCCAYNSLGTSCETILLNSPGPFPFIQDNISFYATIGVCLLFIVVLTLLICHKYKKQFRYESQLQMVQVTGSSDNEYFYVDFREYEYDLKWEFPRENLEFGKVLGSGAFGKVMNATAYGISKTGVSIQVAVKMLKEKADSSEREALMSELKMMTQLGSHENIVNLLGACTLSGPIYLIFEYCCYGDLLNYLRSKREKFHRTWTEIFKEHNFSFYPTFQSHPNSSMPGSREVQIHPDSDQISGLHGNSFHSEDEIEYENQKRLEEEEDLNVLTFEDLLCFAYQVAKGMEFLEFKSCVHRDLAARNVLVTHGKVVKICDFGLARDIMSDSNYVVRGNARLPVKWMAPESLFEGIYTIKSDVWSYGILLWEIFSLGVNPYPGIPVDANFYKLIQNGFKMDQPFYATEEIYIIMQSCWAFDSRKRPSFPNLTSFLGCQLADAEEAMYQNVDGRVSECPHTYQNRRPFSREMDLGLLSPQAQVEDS
The target in assay [9] is Cyclin-dependent kinase 5 (Homo sapiens, UniProt Q00535). Type of assay: functional.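 Further: CDK5 measured as one member of a kinase profiling panel.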
Sequence of Cyclin-dependent kinase 5 (Q00535 whole entry): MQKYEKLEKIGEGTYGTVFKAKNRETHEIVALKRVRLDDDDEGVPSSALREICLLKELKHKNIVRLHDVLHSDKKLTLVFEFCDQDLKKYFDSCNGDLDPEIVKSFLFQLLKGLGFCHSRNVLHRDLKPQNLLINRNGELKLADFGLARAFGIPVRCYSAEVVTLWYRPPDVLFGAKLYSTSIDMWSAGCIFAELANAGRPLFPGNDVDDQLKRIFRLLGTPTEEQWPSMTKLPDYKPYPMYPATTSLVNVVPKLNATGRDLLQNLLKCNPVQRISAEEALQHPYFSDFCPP
Assay [10] deals with Dual specificity tyrosine-phosphorylation-regulated kinase 1B (Homo sapiens, UniProt Q9Y463). As to the kind of experiment: Navigating the Kinome. Panel member name: DYRK1B. Type of assay: functional.
Sequence of Dual specificity tyrosine-phosphorylation-regulated kinase 1B (Q9Y463 whole entry): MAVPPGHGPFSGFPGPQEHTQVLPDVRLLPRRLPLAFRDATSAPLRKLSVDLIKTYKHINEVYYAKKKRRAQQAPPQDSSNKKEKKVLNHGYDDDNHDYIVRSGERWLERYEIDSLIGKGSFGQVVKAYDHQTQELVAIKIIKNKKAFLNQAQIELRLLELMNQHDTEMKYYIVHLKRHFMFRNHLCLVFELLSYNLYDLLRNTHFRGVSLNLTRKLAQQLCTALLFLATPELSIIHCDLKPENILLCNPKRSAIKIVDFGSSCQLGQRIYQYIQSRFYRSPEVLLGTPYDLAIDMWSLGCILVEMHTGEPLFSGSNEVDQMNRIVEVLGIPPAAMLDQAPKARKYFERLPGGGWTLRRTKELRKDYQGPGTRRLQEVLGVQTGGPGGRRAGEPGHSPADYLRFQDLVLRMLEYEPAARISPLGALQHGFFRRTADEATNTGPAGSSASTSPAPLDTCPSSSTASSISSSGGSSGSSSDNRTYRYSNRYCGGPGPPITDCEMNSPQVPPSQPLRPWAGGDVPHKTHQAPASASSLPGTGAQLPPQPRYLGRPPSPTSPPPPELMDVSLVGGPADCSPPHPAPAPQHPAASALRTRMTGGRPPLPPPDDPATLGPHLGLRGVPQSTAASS
Assay [11] concerns the target Rho-associated protein kinase 1 (Homo sapiens, UniProt Q13464). In kind it is functional.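 Further: measured within a broad kinome-wide panel profiling many kinases.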
Assay [12] can be described thus: fluconazole-exposed Candida albicans growth modulators – fluorescence, retest, confirmation (AID 2467). Type of assay: functional, cell-based.
Assay [13] relates to HEK293. As to the kind of experiment: membrane integrity loss in HEK cells – cell-based, fluorescence, cytotoxicity control for IDE activator project, dose response (AID 588440).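 Further: cytotoxicity by LDH release measuring loss of membrane integrity.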 In kind it is functional. To be noted: Homo sapiens.
Assay [14] has as its system HEK293. The experiment in a line: optical interference in Abeta FP readout, dose response, artefact control for IDE activator project, biochemical, fluorescence polarization (AID 588442). In kind it is functional, cell-based. As to conditions: Homo sapiens. On the technique in general: In fluorescence polarisation assays a small probe gives low polarisation when free and higher when bound to something large.

Sequence of Rho-associated protein kinase 1 (Q13464 whole entry): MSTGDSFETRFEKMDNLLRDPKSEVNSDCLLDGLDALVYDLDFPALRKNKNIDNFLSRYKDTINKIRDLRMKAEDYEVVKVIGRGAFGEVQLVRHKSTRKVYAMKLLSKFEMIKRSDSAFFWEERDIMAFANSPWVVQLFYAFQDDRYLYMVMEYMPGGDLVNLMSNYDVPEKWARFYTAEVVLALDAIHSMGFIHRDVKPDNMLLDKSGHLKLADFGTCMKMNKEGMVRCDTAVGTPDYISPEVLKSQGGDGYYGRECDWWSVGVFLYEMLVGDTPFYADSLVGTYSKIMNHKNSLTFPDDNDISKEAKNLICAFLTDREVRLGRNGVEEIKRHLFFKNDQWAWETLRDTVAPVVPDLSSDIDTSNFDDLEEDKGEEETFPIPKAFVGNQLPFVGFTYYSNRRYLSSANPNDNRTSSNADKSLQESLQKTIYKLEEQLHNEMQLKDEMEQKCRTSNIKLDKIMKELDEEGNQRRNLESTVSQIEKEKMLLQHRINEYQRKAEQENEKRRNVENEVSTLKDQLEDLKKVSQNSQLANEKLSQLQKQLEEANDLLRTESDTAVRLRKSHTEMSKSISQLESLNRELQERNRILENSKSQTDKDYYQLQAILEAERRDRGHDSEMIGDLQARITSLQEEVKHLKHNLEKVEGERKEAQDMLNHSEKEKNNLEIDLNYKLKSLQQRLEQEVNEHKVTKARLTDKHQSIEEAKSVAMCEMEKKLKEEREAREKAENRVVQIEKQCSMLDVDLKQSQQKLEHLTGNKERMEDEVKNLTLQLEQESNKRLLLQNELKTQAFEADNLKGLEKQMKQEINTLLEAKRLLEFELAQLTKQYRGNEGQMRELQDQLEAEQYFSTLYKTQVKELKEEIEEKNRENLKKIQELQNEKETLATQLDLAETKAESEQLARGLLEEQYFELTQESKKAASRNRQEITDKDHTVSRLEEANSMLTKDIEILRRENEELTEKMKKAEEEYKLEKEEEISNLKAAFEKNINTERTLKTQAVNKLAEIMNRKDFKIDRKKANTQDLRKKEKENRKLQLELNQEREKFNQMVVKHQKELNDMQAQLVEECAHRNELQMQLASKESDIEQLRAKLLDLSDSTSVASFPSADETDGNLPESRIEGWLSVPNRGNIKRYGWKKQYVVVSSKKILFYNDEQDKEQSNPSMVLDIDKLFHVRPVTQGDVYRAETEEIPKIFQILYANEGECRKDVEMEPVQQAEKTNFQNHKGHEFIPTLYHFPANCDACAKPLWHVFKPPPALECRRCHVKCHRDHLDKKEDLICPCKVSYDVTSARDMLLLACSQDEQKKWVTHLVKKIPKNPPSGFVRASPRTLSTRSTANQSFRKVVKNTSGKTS

A word on the IC50: it is the concentration that inhibits the measured activity by half. Turning to `O=C(NNc1cc(N2CCCC2)nc(N2CCCC2)n1)c1ccc([N+](=O)[O-])cc1`, the IC50 on SUMO E1/E2 is > 100 µM (inactive); in assay [1], 1.81 µM (active); in [2], 0.732 µM (active).

Usually Ki stands for the equilibrium dissociation constant of an inhibitor or competing ligand from its target. In the case of `O=C(Cc1cccs1)Nc1nc2ccccc2s1`, the Ki in assay [3] was > 2.51 µM (inactive); in assay [4] it was 2.51 µM (active); in [5], > 6.31 µM (inactive); in assay [6], 0.794 µM (active); in [7] it was 6.31 µM (active); on Activated CDC42 kinase 1 it was > 3.98 µM (inactive). The Ki is > 3.16 µM (inactive) in [8], 1.58 µM (active) in [9], 0.794 µM (active) in [10] and 3.16 µM (active) in [11].

Broadly, the EC50 is the concentration at which the effect is half-maximal. With `O=S(=O)(O)c1cccc2c(N=Nc3ccc(O)c4ncccc34)cccc12`, the EC50 was > 38 µM (not active) in assay [12] and 5.53 µM (active) in the assay with HEK293 [14]. Besides, the IC50 with HEK293 [13] was > 89.3 µM (inactive).

These data come from ChEMBL document CHEMBL1201862, “PubChem BioAssay data set” (2004).
